Three compounds from patent US5648455A, “Antibiotic WAP-8294A, method for preparing the same and antibacterial composition” (Wakamoto Pharmaceutical Co., Ltd., priority 1994, dated 1997) can be followed below.

Data set [1] relates to Aspergillus fumigatus (IAM 2004). Nature of the data set: MIC, broth dilution, sensitive bouillon medium. The format is cell-based. The method, then:
(§1) The determination of the minimum inhibitory concentration (MIC) was carried out by broth dilution method which made use of a sensitive bouillon medium (available from Eiken Chemical Co., Ltd.).

Data set [2] has as its system Bacillus subtilis (ATCC 6633). Kind of data set: MIC, broth dilution, sensitive bouillon medium. The format is cell-based. The method, then: as §1
For data set [3], the system named is Candida albicans (TIMM 0239). Nature of the data set: MIC, broth dilution, sensitive bouillon medium. Type of data set: cell-based. The method, then: as §1
The subject of data set [4] is Escherichia coli (ATCC 25922). Nature of the data set: MIC, broth dilution, sensitive bouillon medium. Type of data set: cell-based. On the procedure:
as §1

Data set [5] has as its system Pseudomonas aeruginosa (ATCC 9027). Nature of the data set: MIC, broth dilution, sensitive bouillon medium. The format is cell-based. The method, then:
as §1

Data set [6] deals with Staphylococcus aureus (ATCC 25923). Kind of data set: MIC, broth dilution, sensitive bouillon medium. Type of data set: cell-based. The method, then:
as §1

Data set [7] concerns Staphylococcus aureus 371 R (MRSA clinically isolated strain). Nature of the data set: MIC, broth dilution, sensitive bouillon medium. The format is cell-based. On the procedure: as §1
Data set [8] concerns Staphylococcus aureus No. 1 (MRSA clinically isolated strain). Nature of the data set: MIC, broth dilution, sensitive bouillon medium. The format is cell-based. On the procedure:
as §1

In data set [9] the test system is Staphylococcus aureus No. 11 (MRSA clinically isolated strain). Kind of data set: MIC, broth dilution, sensitive bouillon medium. Type of data set: cell-based. The method, then: as §1
For data set [10], the system named is Staphylococcus epidermidis (ATCC 12228). Kind of data set: MIC, broth dilution, sensitive bouillon medium. Type of data set: cell-based. On the procedure:
as §1

Data set [11] concerns Streptococcus pyogenes (ATCC 19615). Nature of the data set: MIC, broth dilution, sensitive bouillon medium. The format is cell-based. The method, then:
as §1

Data set [12] has as its system Gram-positive bacteria including MRSA (methicillin-resistant Staphylococcus aureus). Kind of data set: Antibacterial activity, summary of Table 4. The format is cell-based. Conditions: for increase of antibacterial activity when 10% bovine serum is added to the culture medium: relative to culture medium without serum; for antibacterial activity against Gram-positive bacteria including MRSA: sensitive bouillon medium, Table 4. The method, then:
as §1

A further data set in a line: Solubility. Type of data set: physicochemical. Conditions: solvents.
Data set [13] concerns Staphylococcus aureus No. 1 (a clinically isolated strain of MRSA). Nature of the data set: Protective effect against experimental systemic MRSA infection in mice. Type of data set: in vivo, ICR-MCH mice. Conditions: dose 10 mg/kg, once subcutaneously one hour after infection. On the procedure: (§2) The experiments were carried out by intra-peritoneally administering 0.5 mg/0.5 ml/mouse of cyclophosphamide to ICR-MCH mice [4-week-old male mice (available from Nippon CLEA Co., Ltd.), 8 animals per group] 3 days before the infection and then infecting the animals through intra-peritoneal administration of 0.5 ml each of a liquid containing 2×10^6 /ml of Staphylococcus aureus No. 1 strain supplemented with 5% mucin. One hour after the infection, 10 mg/kg of Vancomycin HCl (available from Shionogi & Co., Ltd.) and 0.2 ml/mouse of the antibiotic WAP-8294A (containing 10 mg/kg, 5 mg/kg, 2.5 mg/kg, 1.0 mg/kg, 0.5 mg/kg, 0.25 mg/kg, 0.1 mg/kg or 0.05 mg/kg of the antibiotic) was once subcutaneously injected to mice. To control groups, there was subcutaneously administered 0.2 ml each of physiological saline.

Data set [14] deals with Staphylococcus aureus JCM8702 (a clinically isolated strain of MRSA). The data set is described as above. Particulars: dose 10 mg/kg, once subcutaneously one hour after infection. The format is in vivo, ICR-MCH mice. On the procedure: as §2, with “2×10^4” for “2×10^6”, “JCM8702” for “No. 1”, “WAP-8294AX” for “WAP-8294A”, “10” for “10 mg/kg, 5”, “1.0” for “1.0 mg/kg, 0.5 mg/kg, 0.25 mg/kg, 0.1”, “0.5” for “0.05”

Setting [15] is: Addition of Serum: 10% (bovine serum).

Converted amounts (≈) assume the structure as drawn. Numbered stars: 1 amine (or outer) side, 2 acyl side, 3 side chain; on linkers, the order of the positions; unused ones are H or OH. Bridge positions count the residues as written; N and C are the ends. Square brackets hold non-standard residues; d marks the D form. Peptide text beside a SMILES is read from it. ξ: configuration not given here. ξAsn(3ξ-OH) = NC(=O)C(O)C(N)C(=O)O; X2 = CC(C)CCCC(CC(=O)[*:1])O[*:2]; NMeF = CN[CH](Cc1ccccc1)C(=O)O; X1 = CCCCCC(CC(=O)[*:1])O[*:2]; NMeV = CN[CH](C(=O)O)C(C)C; Orn = NCCC[CH](N)C(=O)O Where only a bound is given, the exact number is not on record here.

Consider `CCCCCC1CC(=O)NC(CO)C(=O)NC(C(O)C(N)=O)C(=O)NC(CO)C(=O)NCC(=O)N(C)C(Cc2ccccc2)C(=O)NC(CC(C)C)C(=O)NC(CCCN)C(=O)NC(CCC(=O)O)C(=O)NC(CC(N)=O)C(=O)NC(Cc2c[nH]c3ccccc23)C(=O)NC(CCCN)C(=O)N(C)C(C(C)C)C(=O)O1` (stereo not shown) [WAP-8294A1] (S[ξAsn(3ξ-OH)]SG[NMeF]L[Orn]ENW[Orn][NMeV]; linker N-C via X1; configuration not given here), for which the MIC was over 100 µg/mL in [1] (setting [15]); over 100 µg/mL in [1] (Addition of Serum: None); under 0.10 µg/mL in data set [2] (setting [15]); 0.39 µg/mL (≈ 0.252 µM) in data set [2] (Addition of Serum: None); over 100 µg/mL in [3] (setting [15]); over 100 µg/mL in [3] (Addition of Serum: None). For the same compound, the MIC is over 100 µg/mL in [4] (setting [15]); over 100 µg/mL in data set [4] (Addition of Serum: None); over 100 µg/mL in data set [5] (setting [15]); over 100 µg/mL in data set [5] (Addition of Serum: None); under 0.10 µg/mL in data set [6] (setting [15]); 0.39 µg/mL (≈ 0.252 µM) in [6] (Addition of Serum: None). In addition, the MIC in data set [7] (setting [15]) is under 0.10 µg/mL; in data set [7] (Addition of Serum: None) it was 0.39 µg/mL (≈ 0.252 µM); in data set [8] (setting [15]), under 0.10 µg/mL; in data set [8] (Addition of Serum: None) it was 0.39 µg/mL (≈ 0.252 µM); in data set [9] (setting [15]), under 0.10 µg/mL; in data set [9] (Addition of Serum: None), 0.39 µg/mL (≈ 0.252 µM). For the same compound, the MIC was under 0.10 µg/mL in data set [10] (setting [15]), 0.39 µg/mL (≈ 0.252 µM) in [10] (Addition of Serum: None), 25 µg/mL (≈ 16.1 µM) in [11] (setting [15]) and 6.25 µg/mL (≈ 4.04 µM) in data set [11] (Addition of Serum: None). For the same compound, the “increase of antibacterial activity when 10% bovine serum is added to the culture medium” value in [12] is “not less than 8 times”. The “antibacterial activity against Gram-positive bacteria including MRSA” value in data set [12] is on record as “strong antibacterial activity”. For the same compound, the Solubility entry in the data set “Solubility” was “soluble in water, methanol, n-butanol, dimethylformamide and dimethylsulfoxide and insoluble in acetone, ethyl acetate and chloroform”.
Take `CC(C)CCCC1CC(=O)NC(CO)C(=O)NC(C(O)C(N)=O)C(=O)NC(CO)C(=O)NCC(=O)N(C)C(Cc2ccccc2)C(=O)NC(CC(C)C)C(=O)NC(CCCN)C(=O)NC(CCC(=O)O)C(=O)NC(CC(N)=O)C(=O)NC(Cc2c[nH]c3ccccc23)C(=O)NC(CCCN)C(=O)N(C)C(C(C)C)C(=O)O1` (stereo not shown) [WAP-8294A2] (S[ξAsn(3ξ-OH)]SG[NMeF]L[Orn]ENW[Orn][NMeV]; linker N-C via X2; configuration not given here): the MIC was over 100 µg/mL in data set [1] (setting [15]); over 100 µg/mL in data set [1] (Addition of Serum: None); under 0.10 µg/mL in data set [2] (setting [15]); 0.78 µg/mL (≈ 0.499 µM) in data set [2] (Addition of Serum: None); over 100 µg/mL in data set [3] (setting [15]); over 100 µg/mL in [3] (Addition of Serum: None). For the same compound, the MIC is over 100 µg/mL in data set [4] (setting [15]); over 100 µg/mL in [4] (Addition of Serum: None); over 100 µg/mL in [5] (setting [15]); over 100 µg/mL in [5] (Addition of Serum: None); under 0.10 µg/mL in [6] (setting [15]); 0.78 µg/mL (≈ 0.499 µM) in data set [6] (Addition of Serum: None). Moreover, the MIC in data set [7] (setting [15]) is under 0.10 µg/mL; in [7] (Addition of Serum: None) it was 0.78 µg/mL (≈ 0.499 µM); in [8] (setting [15]) it was under 0.10 µg/mL; in data set [8] (Addition of Serum: None) it was 0.78 µg/mL (≈ 0.499 µM); in data set [9] (setting [15]), under 0.10 µg/mL; in data set [9] (Addition of Serum: None), 0.78 µg/mL (≈ 0.499 µM). In addition, the MIC in data set [10] (setting [15]) was under 0.10 µg/mL; in data set [10] (Addition of Serum: None), 0.78 µg/mL (≈ 0.499 µM); in [11] (setting [15]) it was 25 µg/mL (≈ 16 µM); in [11] (Addition of Serum: None), 6.25 µg/mL (≈ 4 µM). The “increase of antibacterial activity when 10% bovine serum is added to the culture medium” value in data set [12] is “not less than 8 times”. In addition, the “antibacterial activity against Gram-positive bacteria including MRSA” value in [12] is listed as “strong antibacterial activity”. Further, in the data set “Solubility”, the Solubility entry is “soluble in water, methanol, n-butanol, dimethylformamide and dimethylsulfoxide and insoluble in acetone, ethyl acetate and chloroform”.
As for `CN[C@H](CC(C)C)C(=O)N[C@H]1C(=O)N[C@@H](CC(N)=O)C(=O)N[C@H]2C(=O)N[C@H]3C(=O)N[C@H](C(=O)N[C@H](C(=O)O)c4cc(O)cc(O)c4-c4cc3ccc4O)[C@H](O)c3ccc(c(Cl)c3)Oc3cc2cc(c3O[C@@H]2O[C@H](CO)[C@@H](O)[C@H](O)[C@H]2O[C@H]2C[C@](C)(N)[C@H](O)[C@H](C)O2)Oc2ccc(cc2Cl)[C@H]1O` [Vancomycin], the “Survival/No. of Test Animals” value in data set [13] and in data set [14] was 5/8 throughout.
